Values quoted from earlier work, collected in patent publication US12485133B2, “Inhaled ivermectin” (Hovione Scientia Limited, priority 2021, dated 2025).

Assays:
[1] = not given; remark: listed apart in the source
[2] = not given; remark: listed apart in the source
SARS-Cov-2 = details: incubated with 5 μM Ivermectin

Substance: Ivermectin
- solubility in non-polar aprotic solvents such as hexane (hexane): completely insoluble
- solubility in methanol and 95% ethanol (methanol, 95% ethanol): freely soluble
- solubility in water (water): < 1 µg/mL
- Log P [1]: 4.4
- stability under acidic and basic aqueous conditions ([2]; acidic and basic aqueous conditions): degrades
- optimal pH for stability ([2]; aqueous conditions): 6.3
- solid state stability (degradation in drug substance batches) ([2]; solid state, 37° C. for 1.5 years): no degradation observed
- time to eliminate the virus from supernatant and infected cells (SARS-Cov-2): ≤ 48 h
